Laboratory results: patent US6399618B1, “Compositions and methods for modulating sexual activity” (priority 1997, dated 2002)
Counter-ions that a name gives are not always drawn. Marks after values point to notes of the source that are not given here.

Legend:
[1] = tested on: noradrenaline pre-contracted rabbit CC; experiment: Direct action on penile erection: tone of corpus cavernosal muscle strips in organ bath; conditions: concentration from 10^-8 M to 10^-4 M; n=6
Experimental: Corpus cavernosal (CC) muscle strips were prepared from penises obtained from rabbit (n=6). CC strips were dissected free from tunica albungia and mounted in 10 or 25 mL organ baths containing Tyrode solution saturated with 95%O2/5% CO2 mixture.

male rats [2] = experiment: Antagonism of XVIb-induced erections by comparative compounds in rats; format: in vivo, SD rats; conditions: for antagonism of the erectile promoting actions of XVIb: injected 30 minutes prior to XVIb 16 mg/kg ip, pindolol 0.1-3, scopolamine 0.1-3.0, haloperidol 0.01-0.3, ketanserin 0.1-3.0 mg/kg
Experimental: Male SD rats (300-500 g; n=6 per group) were injected with (±)-Pindolol, scopolamine, haloperidol, or ketanserin, 30 minutes prior to injection of a single dose of XVIb (16 mg/kg, ip) or saline.

male rats [3] = experiment: Rat sexual behavior, proerectile actions of XVIIa and XVIIb (ip); format: in vivo, SD rats; conditions: 16 mg/kg ip
Experimental: Male SD rats (250-300 g) were injected with XVIIa (16 mg/kg, ip), XVIIb (16 mg/kg, ip) or distilled water (ip), and observed 5 minutes later for the number of erections (as characterized by penile grooming) and the time to the first erection, over a 60 minute observation period. Six rats at a time, housed singly, were observed by two observers. Treatments were administered in a standard randomized and double blinded manner.

male primates = experiment: Sexual behavior in male primates, paired observation study (penile response grades); format: in vivo, macaca fascilaris; conditions: 1.0 mg/kg ip; N=3; observed 1 hour
Experimental: Monkeys used for testing were separated from the cluster of cages and treated and observed in pairs in the middle of the housing environment.
N=3 for all drug-treated animals, while N=18 for saline-treated animals. […] Data are expressed as the number of test animals having a particular grade of penile response. Penile responses were scored every 10 sec for 1 hour according to the following scale:
Grade 0=glans are hidden from the view
Grade 1=glans are clearly visible
Grade 2=penis is extended
Grade 4=erection with masturbation
Grade 5=erection with masturbation and ejaculation

male rats [4] = experiment: Rat sexual behavior, proerectile actions (injected); format: in vivo, SD rats; conditions: for Erections/60 minutes / Latency to the first erection: mean±sem; for Erections/60 minutes / Latency to the first erection / Responders: n=10
Experimental: Male SD rats (350-450 g; n=10 per group) were injected with increasing doses of XVIb (4.0-64.0 mg/kg), XVIa (1.0, 4.0 or 16 mg/kg) or saline and observed 5 minutes later, in groups of 5, for the number of erections and the time to the first erection, over a 60 minutes observation period.
In Table 2, the effects of XVIb, XVIa and saline on erection in male rats is indicated. Data is expressed as the mean±sem for 10 test animals. Data marked with an asterisk “*” indicate significant difference from saline (α<0.05) as determined by ANOVA with Tukey test for multiple comparisons.

Row | Compound | number of test animals having Grade 0 penile response (glans are hidden from the view) (male primates) | number of test animals having Grade 1 penile response (glans are clearly visible) (male primates) | number of test animals having Grade 2 penile response (penis is extended) (male primates) | number of test animals having Grade 3 penile response (full erection) (male primates) | number of test animals having Grade 4 penile response (erection with masturbation) (male primates) | number of test animals having Grade 5 penile response (erection with masturbation and ejaculation) (male primates) | other results
1 | 1-methyl-4-trifluoromethylphenylpiperazine |  |  |  |  |  |  | effect on tone of noradrenaline pre-contracted rabbit CC [1]: failed to reduce tone
2 | CC(C)NCC(O)COc1cccc2[nH]ccc12 (racemic) [(±)-Pindolol] |  |  |  |  |  |  | erections after (±)-pindolol pretreatment plus XVIb (male rats [2]; highest dose tested of (±)-pindolol, XVIb 16 mg/kg ip, n=6): 2.0±0.4 erections/60 minutes; antagonism of the erectile promoting actions of XVIb (male rats [2]): antagonized the erectile promoting actions
3 | O=c1n(CCCN2CCN(c3cccc(Cl)c3)CC2)nc2ccccn12 [Trazodone] |  |  |  |  |  |  | effect on tone of noradrenaline pre-contracted rabbit CC [1]: reduced tone of rabbit CC in a dose dependent manner
4 | CN1CCN(C(=O)Cc2ccc(Cl)c(Cl)c2)CC1 [XVIIa, 1-Methyl-4-(2-(3,4-Dichlorophenyl)acetyl)piperazine Monohydrochloride] |  |  |  |  |  |  | Responders (male rats [3]): 67%; latency to first erection (male rats [3]): 6 min; maximum number of erections/rat (male rats [3]): 3 h⁻¹
5 | COc1ccc(CC(=O)N2CCN(C)CC2)cc1OC [XVIIb, 1-Methyl-4-(3,4-Dimethoxyacetyl)Piperazine Monohydrochloride] |  |  |  |  |  |  | Responders (male rats [3]): 100%; latency to first erection (male rats [3]): 16 min; maximum number of erections/rat (male rats [3]): 5 h⁻¹
6 | CN1CCN(C(=O)Cc2cccc3ccccc23)CC1 [XVIa, 1-Methyl-4(1-naphthaleneacetyl)piperazine monohydrochloride] | 1 | 2 | 2 | 1 | 1 | 0 | Erections/60 minutes (male rats [4]; 1.0 mg/kg): 1.2 ± 0.3; Latency to the first erection (male rats [4]; 1.0 mg/kg): 1929 ± 432 s; Responders (male rats [4]; 1.0 mg/kg): 100%; Erections/60 minutes (male rats [4]; 4.0 mg/kg): 3.0 ± 0.6; Latency to the first erection (male rats [4]; 4.0 mg/kg): 1749 ± 349 s; Responders (male rats [4]; 4.0 mg/kg): 100%; Erections/60 minutes (male rats [4]; 16.0 mg/kg): 5.4 ± 0.7* #; Latency to the first erection (male rats [4]; 16.0 mg/kg): 506 ± 105* sec; Responders (male rats [4]; 16.0 mg/kg): 100%; effect on penile erections (in words) (male rats [4]; 60 minutes observation): increased penile erections, although to a lesser degree than XVIb
7 | CN1[C@@H]2C[C@@H](OC(=O)[C@H](CO)c3ccccc3)C[C@H]1[C@@H]1O[C@@H]12 [scopolamine] |  |  |  |  |  |  | antagonism of the erectile promoting actions of XVIb (male rats [2]): antagonized the erectile promoting actions; erections after scopolamine pretreatment plus XVIb (male rats [2]; scopolamine, XVIb 16 mg/kg ip, n=6): 1.2±0.3 erections/60 minutes
8 | (±)-trans-N-[2-(1-(4-methyl)piperazinyl)cyclohexyl]naphthalene-2-acetamide monohydrochloride [XVb] | 1 | 2 | 2 | 1 | 0 | 0 | 
9 | (±)-trans-N-methyl-[2-(1-(4-methyl)piperazinyl)cyclohexyl]naphthalene-1-acetamide monohydrochloride [Compound XVa] | 1 | 2 | 2 | 2 | 2 | 0 | 
10 | (±)-trans-[2-(1-(4-methyl)piperazinyl)cyclohexyl]naphthalene-1-acetate monohydrochloride [XVc] | 1 | 2 | 2 | 2 | 2 | 1 | 
